Several values for one entry are separate records, joined by “and”; a condition that tells them apart may be missing. Identical values can stand only once. Counter-ions that a name gives are not always drawn. Like-named read-outs stand apart in the source and are kept apart here.
Experiments:
Experiment in all cases: qHTS cell viability (CellTiter-Glo, 72 h; primary and follow-up small molecule screen)
Assay type in all cases: cell-based, human
MCC13 cells (VN-MCC) = system: MCC13 cells (VN-MCC)
MCC26 cells (VN-MCC) = system: MCC26 cells (VN-MCC)
UISO cells (VN-MCC) = system: UISO cells (VN-MCC)
WAGA cells (VP-MCC) = system: WAGA cells (VP-MCC)
MKL-1 cells (VP-MCC) = system: MKL-1 cells (VP-MCC)
MKL-2 cells (VP-MCC) = system: MKL-2 cells (VP-MCC)
[1] = follow-up screen, MCC13, replicate 1
[2] = follow-up screen, MCC13, replicate 2
[3] = follow-up screen, MCC13, replicate 3
[4] = follow-up screen, MCC26, replicate 1
[5] = follow-up screen, MCC26, replicate 2
[6] = follow-up screen, MCC26, replicate 3
[7] = follow-up screen, UISO, replicate 1
[8] = follow-up screen, UISO, replicate 2
[9] = follow-up screen, UISO, replicate 3
[10] = follow-up screen, WAGA, replicate 1
[11] = follow-up screen, WAGA, replicate 2
[12] = follow-up screen, WAGA, replicate 3
[13] = follow-up screen, MKL-1, replicate 1
[14] = follow-up screen, MKL-1, replicate 2
[15] = follow-up screen, MKL-1, replicate 3
[16] = follow-up screen, MKL-2, replicate 1
[17] = follow-up screen, MKL-2, replicate 2
[18] = follow-up screen, MKL-2, replicate 3

Molecule	Area under the dose-response curve (AUC) (MCC13 cells (VN-MCC))	Area under the dose-response curve (AUC) (MCC26 cells (VN-MCC))	Area under the dose-response curve (AUC) MCC13 Replicate 1 (MCC13 cells (VN-MCC); [1])	Area under the dose-response curve (AUC) MCC13 Replicate 2 (MCC13 cells (VN-MCC); [2])	Area under the dose-response curve (AUC) MCC13 Replicate 3 (MCC13 cells (VN-MCC); [3])	Area under the dose-response curve (AUC) MCC26 Replicate 1 (MCC26 cells (VN-MCC); [4])	Area under the dose-response curve (AUC) MCC26 Replicate 2 (MCC26 cells (VN-MCC); [5])	Area under the dose-response curve (AUC) MCC26 Replicate 3 (MCC26 cells (VN-MCC); [6])	Area under the dose-response curve (AUC) UISO Replicate 1 (UISO cells (VN-MCC); [7])	Area under the dose-response curve (AUC) UISO Replicate 2 (UISO cells (VN-MCC); [8])	Area under the dose-response curve (AUC) UISO Replicate 3 (UISO cells (VN-MCC); [9])	Area under the dose-response curve (AUC) WAGA Replicate 1 (WAGA cells (VP-MCC); [10])	Area under the dose-response curve (AUC) WAGA Replicate 2 (WAGA cells (VP-MCC); [11])	Area under the dose-response curve (AUC) WAGA Replicate 3 (WAGA cells (VP-MCC); [12])	Area under the dose-response curve (AUC) MKL-1 Replicate 1 (MKL-1 cells (VP-MCC); [13])	Area under the dose-response curve (AUC) MKL-1 Replicate 2 (MKL-1 cells (VP-MCC); [14])	Area under the dose-response curve (AUC) MKL-1 Replicate 3 (MKL-1 cells (VP-MCC); [15])	Area under the dose-response curve (AUC) MKL-2 Replicate 1 (MKL-2 cells (VP-MCC); [16])	Area under the dose-response curve (AUC) MKL-2 Replicate 2 (MKL-2 cells (VP-MCC); [17])	Area under the dose-response curve (AUC) MKL-2 Replicate 3 (MKL-2 cells (VP-MCC); [18])	other results
O=C1c2c(O)ccc(O)c2C(=O)c2c(NCCNCCO)ccc(NCCNCCO)c21 [Mitoxantrone dihydrochloride]																					Area under the dose-response curve (AUC) MCC13 Replicate 1 (MCC13 cells (VN-MCC)): 292.1; Area under the dose-response curve (AUC) MCC13 Replicate 2 (MCC13 cells (VN-MCC)): 295.3; Area under the dose-response curve (AUC) MCC13 Replicate 3 (MCC13 cells (VN-MCC)): 315.4; Area under the dose-response curve (AUC) MCC26 Replicate 1 (MCC26 cells (VN-MCC)): 322.6; Area under the dose-response curve (AUC) MCC26 Replicate 2 (MCC26 cells (VN-MCC)): 335.6; Area under the dose-response curve (AUC) MCC26 Replicate 3 (MCC26 cells (VN-MCC)): 279.8; Area under the dose-response curve (AUC) UISO Replicate 1 (UISO cells (VN-MCC)): 188.5; Area under the dose-response curve (AUC) UISO Replicate 2 (UISO cells (VN-MCC)): 205.7; Area under the dose-response curve (AUC) UISO Replicate 3 (UISO cells (VN-MCC)): 190.2; Area under the dose-response curve (AUC) WAGA Replicate 1 (WAGA cells (VP-MCC)): 153.5; Area under the dose-response curve (AUC) WAGA Replicate 2 (WAGA cells (VP-MCC)): 170.4; Area under the dose-response curve (AUC) WAGA Replicate 3 (WAGA cells (VP-MCC)): 183.6; Area under the dose-response curve (AUC) MKL-1 Replicate 1 (MKL-1 cells (VP-MCC)): 180.6; Area under the dose-response curve (AUC) MKL-1 Replicate 2 (MKL-1 cells (VP-MCC)): 178.5; Area under the dose-response curve (AUC) MKL-1 Replicate 3 (MKL-1 cells (VP-MCC)): 172.4; Area under the dose-response curve (AUC) MKL-2 Replicate 1 (MKL-2 cells (VP-MCC)): 203.7; Area under the dose-response curve (AUC) MKL-2 Replicate 2 (MKL-2 cells (VP-MCC)): 186.2; Area under the dose-response curve (AUC) MKL-2 Replicate 3 (MKL-2 cells (VP-MCC)): 247.3
AZD-4547	385.3 and 349.5 and 390.1	311.4 and 288.0 and 307.4																			Area under the dose-response curve (AUC) (UISO cells (VN-MCC)): 337.7 and 347.0 and 331.2; Area under the dose-response curve (AUC) (WAGA cells (VP-MCC)): 425.9 and 443.6 and 367.2; Area under the dose-response curve (AUC) (MKL-1 cells (VP-MCC)): 362.7 and 390.5 and 360.0; Area under the dose-response curve (AUC) (MKL-2 cells (VP-MCC)): 380.8 and 390.1 and 354.8
O.O=c1c2ccc(O)c(O)c2oc2c(O)c(O)ccc12 [3,4,5,6-Tetrahydroxyxanthone hydrate]	500.0 and 470.6 and 462.5	448.2 and 449.4 and 459.1																			Area under the dose-response curve (AUC) (UISO cells (VN-MCC)): 455.2 and 451.1 and 430.7; Area under the dose-response curve (AUC) (WAGA cells (VP-MCC)): 510.8 and 453.0 and 432.4; Area under the dose-response curve (AUC) (MKL-1 cells (VP-MCC)): 474.6 and 473.6 and 453.4; Area under the dose-response curve (AUC) (MKL-2 cells (VP-MCC)): 454.0 and 468.2 and 444.8
CCOC(=O)c1cnc2ccc(-c3cncc(NS(=O)(=O)c4ccccc4)c3)cn12 [HS-173]	410.4 and 416.6 and 423.4	371.1 and 368.1 and 383.3																			Area under the dose-response curve (AUC) (UISO cells (VN-MCC)): 373.6 and 378.4 and 376.1; Area under the dose-response curve (AUC) (WAGA cells (VP-MCC)): 390.4 and 391.0 and 384.0; Area under the dose-response curve (AUC) (MKL-1 cells (VP-MCC)): 400.2 and 402.4 and 398.2; Area under the dose-response curve (AUC) (MKL-2 cells (VP-MCC)): 425.2 and 393.3 and 372.1
C/C=C(/C)C(=O)O[C@H]1C(C)=C2[C@H]([C@@H]1OC(=O)CCCCCCC)[C@@](C)(OC(C)=O)C[C@H](OC(=O)CCC)[C@@]1(O)[C@H]2OC(=O)[C@@]1(C)O [Thapsigargin]			289.0	272.1	274.4	278.4	281.8	214.4	207.4	234.5	207.7	336.3	303.0	289.2	384.9	385.8	395.7	322.6	308.5	284.8	
Nc1ncnc2c1ncn2[C@@H]1O[C@H](CO)[C@@H](O)[C@H]1O [Adenosine]			550.6	498.0	487.2	484.4	450.7	501.0	514.9	502.8	486.4	557.9	476.1	490.2	523.5	521.0	519.8	483.1	500.4	489.0	
COc1ccc2cc3[n+](cc2c1OC)CCc1cc2c(cc1-3)OCO2 [Berberine]			398.2	416.5	443.1	384.2	304.3	382.1	307.5	333.0	307.0	314.6	371.3	307.0	311.8	310.8	306.9	282.0	271.5	295.9	
C[C@H]1CCC/C=C/[C@@H]2C[C@H](OC(=O)CN(C)C)C[C@H]2[C@H](O)/C=C/C(=O)O1 [Breflate]																					Area under the dose-response curve (AUC) MCC13 Replicate 1 (MCC13 cells (VN-MCC)): 301.4; Area under the dose-response curve (AUC) MCC13 Replicate 2 (MCC13 cells (VN-MCC)): 313.0; Area under the dose-response curve (AUC) MCC13 Replicate 3 (MCC13 cells (VN-MCC)): 291.5; Area under the dose-response curve (AUC) MCC26 Replicate 1 (MCC26 cells (VN-MCC)): 324.6; Area under the dose-response curve (AUC) MCC26 Replicate 2 (MCC26 cells (VN-MCC)): 334.5; Area under the dose-response curve (AUC) MCC26 Replicate 3 (MCC26 cells (VN-MCC)): 272.7; Area under the dose-response curve (AUC) UISO Replicate 1 (UISO cells (VN-MCC)): 287.6; Area under the dose-response curve (AUC) UISO Replicate 2 (UISO cells (VN-MCC)): 297.1; Area under the dose-response curve (AUC) UISO Replicate 3 (UISO cells (VN-MCC)): 295.8; Area under the dose-response curve (AUC) WAGA Replicate 1 (WAGA cells (VP-MCC)): 298.7; Area under the dose-response curve (AUC) WAGA Replicate 2 (WAGA cells (VP-MCC)): 274.6; Area under the dose-response curve (AUC) WAGA Replicate 3 (WAGA cells (VP-MCC)): 278.0; Area under the dose-response curve (AUC) MKL-1 Replicate 1 (MKL-1 cells (VP-MCC)): 284.7; Area under the dose-response curve (AUC) MKL-1 Replicate 2 (MKL-1 cells (VP-MCC)): 297.0; Area under the dose-response curve (AUC) MKL-1 Replicate 3 (MKL-1 cells (VP-MCC)): 286.8; Area under the dose-response curve (AUC) MKL-2 Replicate 1 (MKL-2 cells (VP-MCC)): 314.0; Area under the dose-response curve (AUC) MKL-2 Replicate 2 (MKL-2 cells (VP-MCC)): 292.1; Area under the dose-response curve (AUC) MKL-2 Replicate 3 (MKL-2 cells (VP-MCC)): 266.7
Oc1ccc(C2=Cc3ccc(O)cc3OC2)cc1 [Idronoxil]	415.6 and 455.9 and 456.9	408.0 and 413.9 and 448.0																			Area under the dose-response curve (AUC) (UISO cells (VN-MCC)): 422.5 and 447.1 and 401.0; Area under the dose-response curve (AUC) (WAGA cells (VP-MCC)): 395.2 and 366.0 and 386.6; Area under the dose-response curve (AUC) (MKL-1 cells (VP-MCC)): 285.6 and 303.3 and 334.8; Area under the dose-response curve (AUC) (MKL-2 cells (VP-MCC)): 351.5 and 302.3 and 331.4
CCN(CCO)CCCC(C)Nc1ccnc2cc(Cl)ccc12 (stereo not drawn) [Hydroxychloroquine sulfate]			495.6	487.6	467.0	423.8	423.8	468.3	504.6	448.6	420.1	540.2	519.3	458.7	541.8	486.3	499.9	454.2	416.6	490.5	
CO[C@H]1/C=C/O[C@@]2(C)Oc3c(C)c(O)c4c(O)c(c(/C=N/N5CCN(C6CCCC6)CC5)c(O)c4c3C2=O)NC(=O)/C(C)=C\C=C\[C@H](C)[C@H](O)[C@@H](C)[C@@H](O)[C@@H](C)[C@H](OC(C)=O)[C@@H]1C [Rifapentine]			505.1	494.8	490.8	454.9	422.8	488.5	475.3	482.1	453.0	525.4	514.7	508.3	466.1	446.1	500.1	477.3	488.3	494.1	
